The values that follow are results of earlier work, collected in US12201639B2, “Aqueous oral pharmaceutical suspension compositions” (ReveraGen BioPharma, Inc., priority 2019, dated 2025).

Data set [1] relates to mouse models of inflammatory states. Particulars: compared with prednisolone.
For data set [2], the target named is T1, glucocorticoid receptor (Homo sapiens, UniProt P04150).
T1 sequence (P04150 1-777): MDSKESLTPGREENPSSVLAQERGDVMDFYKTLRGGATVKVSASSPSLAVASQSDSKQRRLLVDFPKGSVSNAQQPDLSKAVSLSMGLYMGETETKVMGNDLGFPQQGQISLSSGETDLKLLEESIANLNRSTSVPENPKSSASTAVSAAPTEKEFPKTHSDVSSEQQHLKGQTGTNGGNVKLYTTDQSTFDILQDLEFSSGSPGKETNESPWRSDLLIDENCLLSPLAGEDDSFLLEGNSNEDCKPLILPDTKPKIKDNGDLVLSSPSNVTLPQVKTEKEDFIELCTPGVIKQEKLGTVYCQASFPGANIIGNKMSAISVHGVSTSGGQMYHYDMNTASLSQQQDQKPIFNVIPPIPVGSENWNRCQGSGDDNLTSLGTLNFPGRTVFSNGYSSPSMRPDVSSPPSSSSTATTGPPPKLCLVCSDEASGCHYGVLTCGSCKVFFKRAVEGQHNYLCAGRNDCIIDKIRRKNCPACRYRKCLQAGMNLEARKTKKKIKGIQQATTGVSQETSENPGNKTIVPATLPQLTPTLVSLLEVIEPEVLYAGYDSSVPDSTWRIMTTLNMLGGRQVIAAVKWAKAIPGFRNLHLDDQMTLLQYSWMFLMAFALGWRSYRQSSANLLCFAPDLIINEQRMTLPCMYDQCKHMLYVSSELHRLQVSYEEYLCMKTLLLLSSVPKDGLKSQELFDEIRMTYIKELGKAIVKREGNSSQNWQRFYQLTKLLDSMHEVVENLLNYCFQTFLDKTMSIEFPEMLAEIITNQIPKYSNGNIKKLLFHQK
As to conditions: pre-clinical data.

For `C[C@@H]1C[C@H]2[C@@H]3CCC4=CC(=O)C=C[C@]4(C)C3=CC[C@]2(C)[C@@]1(O)C(=O)CO` [vamorolone, 17α,21-dihydroxy-16α-methylpregna-1,4,9 (11)-triene-3,20-dione], the “side effect profiles (growth stunting, bone fragility) in mouse models” value in data set [1] is listed as “dramatically improves side effect profiles”. The “binding to the glucocorticoid receptor” value in data set [2] is reported as “binds potently”.
